Measured values as given in PMC7932521, “2-aminobenzimidazoles for leishmaniasis: From initial hit discovery to in vivo profiling” (PLoS Neglected Tropical Diseases, 2021).
Converted amounts (≈) assume the structure as drawn.

Test system: P2Y
Assay: Bioprofiling 6pt Antag P2Y CHO
Type: cell-based
Conditions: antagonist readout vs ATP; read-out: Bioprofiling 6pt Antag P2Y CHO Hamster IC50
Experimental: (§1) The compounds were evaluated across a panel of 20 liability targets (37 functional assays) which included functional cell-based GPCRs and ion channels in both agonist and antagonist readout, measuring calcium flux and biochemical functional assays for nuclear hormone receptors and phosphodiesterases using TR-FRET format, in a 6 point 1:3 dilution dose series (maximum final concentration of 10 μM).

Row | Compound | IC50 [µM]
1 | Cn1nc(C(F)(F)F)cc1C(=O)Nc1nc2ccc(C#N)cc2n1CC(F)(F)F [Compound 39, O=C(c1cc(C(F)(F)F)nn1C)Nc2nc(ccc(C#N)c3)c3n2CC(F)(F)F] | > 10
2 | COc1ccc(C(=O)Nc2nc3ccc(C#N)cc3n2CC(F)(F)F)cn1 [Compound 43, O=C(c1ccc(OC)nc1)Nc2nc(ccc(C#N)c3)c3n2CC(F)(F)F] | > 10
3 | Cn1nccc1C(=O)Nc1nc2ccc(C#N)cc2n1CC(F)(F)F [Compound 30, O=C(c1ccnn1C)Nc2nc(ccc(C#N)c3)c3n2CC(F)(F)F] | > 10

Test system: not listed separately
Assay: Parallel artificial membrane permeability assay (PAMPA)
Type: in vitro ADME
Conditions: PAMPA, S1 Data; read-out: PAMPA Pe
Summary of the method: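 Compounds at 10μM final in PBS pH 6.5 (donor) against PBS pH 7.4 (acceptor) across lipid-coated membranes, incubated 5 h at 37°C. Donor, acceptor and T0 levels measured by LC-MS/MS to derive effective permeability (Pe); n = 3.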

Row | Compound | Papp at 5 h, 10 μM [×10⁻⁶ cm/s]
4 | Cn1nc(C(F)(F)F)cc1C(=O)Nc1nc2ccc(C#N)cc2n1CC(F)(F)F [Compound 39, O=C(c1cc(C(F)(F)F)nn1C)Nc2nc(ccc(C#N)c3)c3n2CC(F)(F)F] | 2.4
5 | COc1ccc(C(=O)Nc2nc3ccc(C#N)cc3n2CC(F)(F)F)cn1 [Compound 43, O=C(c1ccc(OC)nc1)Nc2nc(ccc(C#N)c3)c3n2CC(F)(F)F] | 14.7
6 | Cn1nccc1C(=O)Nc1nc2ccc(C#N)cc2n1CC(F)(F)F [Compound 30, O=C(c1ccnn1C)Nc2nc(ccc(C#N)c3)c3n2CC(F)(F)F] | 27.9

Same assay, conditions: passive permeability; read-out: PAMPA

Row | Compound | Papp at 5 h, 10 μM [×10⁻⁶ cm/s]
7 | Cn1nc(C(F)(F)F)cc1C(=O)Nc1nc2ccc(C#N)cc2n1CC(F)(F)F [Compound 39, O=C(c1cc(C(F)(F)F)nn1C)Nc2nc(ccc(C#N)c3)c3n2CC(F)(F)F] | 10
8 | Cn1nccc1C(=O)Nc1nc2ccc(C#N)cc2n1CC(F)(F)F [Compound 30, O=C(c1ccnn1C)Nc2nc(ccc(C#N)c3)c3n2CC(F)(F)F] | 7.9

Target: Cav1.2 (L-type) (Mus musculus, UniProt Q01815)
Sequence (Q01815 whole entry): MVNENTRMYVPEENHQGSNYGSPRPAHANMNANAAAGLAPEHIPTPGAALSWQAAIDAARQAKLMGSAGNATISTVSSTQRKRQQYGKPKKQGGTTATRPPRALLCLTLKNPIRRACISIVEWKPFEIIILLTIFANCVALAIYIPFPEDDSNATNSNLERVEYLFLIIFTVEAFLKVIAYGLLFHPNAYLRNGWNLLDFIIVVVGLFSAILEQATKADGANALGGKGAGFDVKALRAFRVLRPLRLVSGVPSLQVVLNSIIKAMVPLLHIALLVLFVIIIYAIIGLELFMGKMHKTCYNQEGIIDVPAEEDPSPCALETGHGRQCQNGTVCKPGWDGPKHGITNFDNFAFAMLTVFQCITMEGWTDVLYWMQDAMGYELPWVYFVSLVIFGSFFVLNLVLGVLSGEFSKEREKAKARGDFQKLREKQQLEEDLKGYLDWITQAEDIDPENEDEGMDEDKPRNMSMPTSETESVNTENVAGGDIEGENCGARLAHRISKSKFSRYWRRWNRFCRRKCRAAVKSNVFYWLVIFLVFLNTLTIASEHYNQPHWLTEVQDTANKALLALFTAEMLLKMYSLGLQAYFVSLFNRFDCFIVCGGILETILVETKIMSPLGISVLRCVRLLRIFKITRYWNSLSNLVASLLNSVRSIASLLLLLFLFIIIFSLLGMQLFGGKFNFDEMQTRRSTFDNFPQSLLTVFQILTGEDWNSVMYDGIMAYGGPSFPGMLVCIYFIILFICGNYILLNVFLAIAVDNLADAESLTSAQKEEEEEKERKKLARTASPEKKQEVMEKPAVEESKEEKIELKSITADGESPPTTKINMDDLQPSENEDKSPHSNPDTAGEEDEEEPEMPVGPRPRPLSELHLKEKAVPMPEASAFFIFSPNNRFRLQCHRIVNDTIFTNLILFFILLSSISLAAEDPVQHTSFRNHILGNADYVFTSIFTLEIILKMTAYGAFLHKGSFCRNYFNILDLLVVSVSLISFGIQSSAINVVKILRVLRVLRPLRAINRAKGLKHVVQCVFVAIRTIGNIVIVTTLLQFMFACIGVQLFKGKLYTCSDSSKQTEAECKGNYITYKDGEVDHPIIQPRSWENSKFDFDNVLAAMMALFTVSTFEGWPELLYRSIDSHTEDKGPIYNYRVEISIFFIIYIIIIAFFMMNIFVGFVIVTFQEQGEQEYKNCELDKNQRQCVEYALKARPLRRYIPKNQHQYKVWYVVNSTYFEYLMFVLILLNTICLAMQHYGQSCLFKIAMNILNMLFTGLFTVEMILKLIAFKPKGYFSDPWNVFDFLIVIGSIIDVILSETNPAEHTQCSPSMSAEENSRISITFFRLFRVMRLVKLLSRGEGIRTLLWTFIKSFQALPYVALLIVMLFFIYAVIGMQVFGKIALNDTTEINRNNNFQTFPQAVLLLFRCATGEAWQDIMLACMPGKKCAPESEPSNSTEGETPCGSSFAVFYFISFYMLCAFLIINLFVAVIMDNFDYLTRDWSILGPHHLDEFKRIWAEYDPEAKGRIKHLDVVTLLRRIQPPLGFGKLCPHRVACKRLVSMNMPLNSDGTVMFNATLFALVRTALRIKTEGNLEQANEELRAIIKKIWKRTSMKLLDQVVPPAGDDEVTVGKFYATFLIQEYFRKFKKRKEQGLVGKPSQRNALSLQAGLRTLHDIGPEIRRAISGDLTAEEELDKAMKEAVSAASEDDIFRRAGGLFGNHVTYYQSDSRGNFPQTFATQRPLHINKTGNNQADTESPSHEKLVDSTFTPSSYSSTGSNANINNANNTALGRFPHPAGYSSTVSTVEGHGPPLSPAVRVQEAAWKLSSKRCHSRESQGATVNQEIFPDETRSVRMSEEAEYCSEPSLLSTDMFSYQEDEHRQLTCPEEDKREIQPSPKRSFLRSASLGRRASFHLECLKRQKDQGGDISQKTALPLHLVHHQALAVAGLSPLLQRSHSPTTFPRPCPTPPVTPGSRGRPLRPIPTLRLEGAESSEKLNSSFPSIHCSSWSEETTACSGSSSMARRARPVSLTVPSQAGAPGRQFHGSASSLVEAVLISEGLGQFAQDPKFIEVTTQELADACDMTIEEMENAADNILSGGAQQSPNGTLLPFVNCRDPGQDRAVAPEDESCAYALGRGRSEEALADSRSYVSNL
Assay: Bioprofiling 6pt Antag Cav1.2 (L-type) ND7/23
Type: cell-based
Conditions: mouse/rat, ND7/23 cells; antagonist readout vs KCl
Experimental: as §1

Row | Compound | IC50 [µM]
9 | Cn1nc(C(F)(F)F)cc1C(=O)Nc1nc2ccc(C#N)cc2n1CC(F)(F)F [Compound 39, O=C(c1cc(C(F)(F)F)nn1C)Nc2nc(ccc(C#N)c3)c3n2CC(F)(F)F] | > 10
10 | COc1ccc(C(=O)Nc2nc3ccc(C#N)cc3n2CC(F)(F)F)cn1 [Compound 43, O=C(c1ccc(OC)nc1)Nc2nc(ccc(C#N)c3)c3n2CC(F)(F)F] | > 10
11 | Cn1nccc1C(=O)Nc1nc2ccc(C#N)cc2n1CC(F)(F)F [Compound 30, O=C(c1ccnn1C)Nc2nc(ccc(C#N)c3)c3n2CC(F)(F)F] | > 10

Test system: not listed separately
Assay: Kinetic solubility
Type: physicochemical
Conditions: PBS buffer pH 7.4, aqueous buffer, kinetic from dmso stock; PBS pH 7.4; read-out: KS PBS - pH7.4
Experimental: The precipitates on the incubation plate were removed by centrifugation (15 min, 3000 rpm, r.t.); the compound concentration in the resulting supernatant was determined by LC-MS/MS. Results were calculated as the concentration of remaining compound in solution after incubation.

Row | Compound | solubility kinetic at 24 h [µg/mL]
12 | Cn1nc(C(F)(F)F)cc1C(=O)Nc1nc2ccc(C#N)cc2n1CC(F)(F)F [Compound 39, O=C(c1cc(C(F)(F)F)nn1C)Nc2nc(ccc(C#N)c3)c3n2CC(F)(F)F] | 0.42 (≈ 1.01 µM)
13 | COc1ccc(C(=O)Nc2nc3ccc(C#N)cc3n2CC(F)(F)F)cn1 [Compound 43, O=C(c1ccc(OC)nc1)Nc2nc(ccc(C#N)c3)c3n2CC(F)(F)F] | 0.38 (≈ 1.01 µM)
14 | Cn1nccc1C(=O)Nc1nc2ccc(C#N)cc2n1CC(F)(F)F [Compound 30, O=C(c1ccnn1C)Nc2nc(ccc(C#N)c3)c3n2CC(F)(F)F] | 9.22 (≈ 26.5 µM)

Same assay, conditions: PBS pH 2

Row | Compound | KS PBS - pH 2 [ug/mL]
15 | Cn1nc(C(F)(F)F)cc1C(=O)Nc1nc2ccc(C#N)cc2n1CC(F)(F)F [Compound 39, O=C(c1cc(C(F)(F)F)nn1C)Nc2nc(ccc(C#N)c3)c3n2CC(F)(F)F] | 0.42
16 | COc1ccc(C(=O)Nc2nc3ccc(C#N)cc3n2CC(F)(F)F)cn1 [Compound 43, O=C(c1ccc(OC)nc1)Nc2nc(ccc(C#N)c3)c3n2CC(F)(F)F] | 0.38
17 | Cn1nccc1C(=O)Nc1nc2ccc(C#N)cc2n1CC(F)(F)F [Compound 30, O=C(c1ccnn1C)Nc2nc(ccc(C#N)c3)c3n2CC(F)(F)F] | 10.45

Same assay, conditions: kinetic solubility, pH 7.4

Row | Compound | KS pH 7.4 [μM]
18 | Cn1nc(C(F)(F)F)cc1C(=O)Nc1nc2ccc(C#N)cc2n1CC(F)(F)F [Compound 39, O=C(c1cc(C(F)(F)F)nn1C)Nc2nc(ccc(C#N)c3)c3n2CC(F)(F)F] | <1.0
19 | Cn1nccc1C(=O)Nc1nc2ccc(C#N)cc2n1CC(F)(F)F [Compound 30, O=C(c1ccnn1C)Nc2nc(ccc(C#N)c3)c3n2CC(F)(F)F] | 26

Target: T1, Kv11.1 (hERG) (Homo sapiens, UniProt Q12809)
T1 construct: host or cells: T-REx-CHO, doxycycline-induced
T1 sequence (Q12809 whole entry): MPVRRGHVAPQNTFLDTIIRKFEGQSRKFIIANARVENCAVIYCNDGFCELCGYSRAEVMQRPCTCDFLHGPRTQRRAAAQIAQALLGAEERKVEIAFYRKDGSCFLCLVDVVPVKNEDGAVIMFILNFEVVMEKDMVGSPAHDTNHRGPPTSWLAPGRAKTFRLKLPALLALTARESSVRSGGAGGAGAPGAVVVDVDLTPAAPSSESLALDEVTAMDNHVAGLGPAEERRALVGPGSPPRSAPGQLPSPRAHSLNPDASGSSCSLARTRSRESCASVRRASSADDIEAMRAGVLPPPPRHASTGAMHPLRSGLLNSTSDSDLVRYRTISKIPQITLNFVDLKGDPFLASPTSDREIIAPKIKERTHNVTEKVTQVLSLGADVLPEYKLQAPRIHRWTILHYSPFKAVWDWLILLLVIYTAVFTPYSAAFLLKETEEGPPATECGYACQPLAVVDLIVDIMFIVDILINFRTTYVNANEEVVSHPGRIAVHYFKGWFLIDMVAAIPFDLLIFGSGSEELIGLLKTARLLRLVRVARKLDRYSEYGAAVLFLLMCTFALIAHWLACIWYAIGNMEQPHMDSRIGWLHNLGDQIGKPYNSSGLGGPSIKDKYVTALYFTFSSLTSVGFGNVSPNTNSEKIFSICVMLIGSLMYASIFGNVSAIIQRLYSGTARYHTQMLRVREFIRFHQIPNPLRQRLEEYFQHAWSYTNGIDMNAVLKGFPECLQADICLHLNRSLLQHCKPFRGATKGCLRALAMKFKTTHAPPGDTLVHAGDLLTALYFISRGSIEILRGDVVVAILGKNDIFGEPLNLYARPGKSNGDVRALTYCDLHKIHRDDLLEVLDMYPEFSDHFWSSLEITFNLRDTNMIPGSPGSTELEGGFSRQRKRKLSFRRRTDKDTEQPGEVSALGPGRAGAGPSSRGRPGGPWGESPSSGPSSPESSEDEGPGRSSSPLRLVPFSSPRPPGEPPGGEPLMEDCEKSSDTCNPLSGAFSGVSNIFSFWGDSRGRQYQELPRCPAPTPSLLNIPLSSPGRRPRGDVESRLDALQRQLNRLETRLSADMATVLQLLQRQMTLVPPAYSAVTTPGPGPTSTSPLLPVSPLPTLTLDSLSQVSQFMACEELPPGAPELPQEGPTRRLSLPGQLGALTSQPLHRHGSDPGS
Assay: hERG thallium influx assay
Type: cell-based
Conditions: KCl, read-out: Bioprofiling 6pt Thallium Influx Antag Kv11.1 (hERG) CHO Human IC50
Experimental: This was adapted from the literature method;[28] briefly, hERG functional activity was measured in an inducible hERG T-RExTM-CHO Cell line (ThermoFisher #K1237) using thallium influx as a surrogate indicator of potassium ion channel activity. Thallium enhances the fluorescent signal of BTC-AM dye (ThermoFisher #B6791). 384 well plates were seeded at 15,000 cells/well with doxycycline hyclate, included to induce expression of the hERG channel, and grown for 48 hours. Media was removed and cells were loaded with 4 μM dye for 90 mins in a low potassium buffer, dye was then removed and compound added to the cells in a high potassium buffer in a 6 point 1:3 dilution dose series (maximum final concentration of 30 μM). After 30 mins of compound incubation, channel activity was recorded upon addition of thallium buffer using a Tetra plate reader. The slope of the kinetic read was used to calculate channel activity.

Row | Compound | IC50 [µM]
20 | Cn1nc(C(F)(F)F)cc1C(=O)Nc1nc2ccc(C#N)cc2n1CC(F)(F)F [Compound 39, O=C(c1cc(C(F)(F)F)nn1C)Nc2nc(ccc(C#N)c3)c3n2CC(F)(F)F] | > 30
21 | COc1ccc(C(=O)Nc2nc3ccc(C#N)cc3n2CC(F)(F)F)cn1 [Compound 43, O=C(c1ccc(OC)nc1)Nc2nc(ccc(C#N)c3)c3n2CC(F)(F)F] | > 30
22 | Cn1nccc1C(=O)Nc1nc2ccc(C#N)cc2n1CC(F)(F)F [Compound 30, O=C(c1ccnn1C)Nc2nc(ccc(C#N)c3)c3n2CC(F)(F)F] | > 30

Target: T2, M2 (Homo sapiens, UniProt P08172)
T2 construct: expressed in transfected cells; host or cells: CHO
T2 sequence (P08172 1-466): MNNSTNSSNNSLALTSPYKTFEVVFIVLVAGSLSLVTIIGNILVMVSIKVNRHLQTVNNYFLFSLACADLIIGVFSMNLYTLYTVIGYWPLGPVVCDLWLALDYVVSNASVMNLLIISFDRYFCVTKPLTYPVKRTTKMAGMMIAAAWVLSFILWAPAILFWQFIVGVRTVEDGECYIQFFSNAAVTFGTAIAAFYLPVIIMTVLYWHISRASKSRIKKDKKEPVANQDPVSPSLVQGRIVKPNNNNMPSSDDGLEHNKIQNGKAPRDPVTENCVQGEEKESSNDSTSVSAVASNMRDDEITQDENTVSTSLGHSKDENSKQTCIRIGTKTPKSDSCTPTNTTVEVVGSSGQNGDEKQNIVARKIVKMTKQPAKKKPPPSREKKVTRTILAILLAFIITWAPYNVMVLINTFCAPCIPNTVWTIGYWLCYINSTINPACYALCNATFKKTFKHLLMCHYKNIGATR
Assay: Bioprofiling 6pt Antag M2 CHO
Type: cell-based
Conditions: antagonist readout vs Carbachol
Experimental: as §1

Row | Compound | IC50 [µM]
23 | Cn1nc(C(F)(F)F)cc1C(=O)Nc1nc2ccc(C#N)cc2n1CC(F)(F)F [Compound 39, O=C(c1cc(C(F)(F)F)nn1C)Nc2nc(ccc(C#N)c3)c3n2CC(F)(F)F] | > 10
24 | COc1ccc(C(=O)Nc2nc3ccc(C#N)cc3n2CC(F)(F)F)cn1 [Compound 43, O=C(c1ccc(OC)nc1)Nc2nc(ccc(C#N)c3)c3n2CC(F)(F)F] | > 10
25 | Cn1nccc1C(=O)Nc1nc2ccc(C#N)cc2n1CC(F)(F)F [Compound 30, O=C(c1ccnn1C)Nc2nc(ccc(C#N)c3)c3n2CC(F)(F)F] | > 10

Target: T3, Alpha1A (Homo sapiens, UniProt P35348)
T3 construct: expressed in transfected cells; host or cells: CHO
T3 sequence (P35348 1-466): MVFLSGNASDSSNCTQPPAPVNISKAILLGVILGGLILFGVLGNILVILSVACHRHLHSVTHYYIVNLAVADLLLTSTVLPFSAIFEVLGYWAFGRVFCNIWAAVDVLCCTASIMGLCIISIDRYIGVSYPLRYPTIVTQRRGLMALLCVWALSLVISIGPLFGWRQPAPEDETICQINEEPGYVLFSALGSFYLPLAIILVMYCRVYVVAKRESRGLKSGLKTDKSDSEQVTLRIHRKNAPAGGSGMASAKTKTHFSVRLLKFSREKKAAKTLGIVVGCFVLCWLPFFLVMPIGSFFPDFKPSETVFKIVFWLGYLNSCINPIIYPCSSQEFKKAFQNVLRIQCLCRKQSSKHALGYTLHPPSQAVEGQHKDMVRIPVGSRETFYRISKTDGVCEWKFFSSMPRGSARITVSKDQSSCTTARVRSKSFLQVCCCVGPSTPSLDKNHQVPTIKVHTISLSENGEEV
Assay: Bioprofiling 6pt Antag Alpha1A CHO
Type: cell-based
Conditions: antagonist readout vs A-61603
Experimental: as §1

Row | Compound | IC50 [µM]
26 | Cn1nc(C(F)(F)F)cc1C(=O)Nc1nc2ccc(C#N)cc2n1CC(F)(F)F [Compound 39, O=C(c1cc(C(F)(F)F)nn1C)Nc2nc(ccc(C#N)c3)c3n2CC(F)(F)F] | > 10
27 | COc1ccc(C(=O)Nc2nc3ccc(C#N)cc3n2CC(F)(F)F)cn1 [Compound 43, O=C(c1ccc(OC)nc1)Nc2nc(ccc(C#N)c3)c3n2CC(F)(F)F] | > 10
28 | Cn1nccc1C(=O)Nc1nc2ccc(C#N)cc2n1CC(F)(F)F [Compound 30, O=C(c1ccnn1C)Nc2nc(ccc(C#N)c3)c3n2CC(F)(F)F] | > 10

Target: T4, PPARgamma (Homo sapiens, UniProt P37231)
T4 sequence (P37231 1-505): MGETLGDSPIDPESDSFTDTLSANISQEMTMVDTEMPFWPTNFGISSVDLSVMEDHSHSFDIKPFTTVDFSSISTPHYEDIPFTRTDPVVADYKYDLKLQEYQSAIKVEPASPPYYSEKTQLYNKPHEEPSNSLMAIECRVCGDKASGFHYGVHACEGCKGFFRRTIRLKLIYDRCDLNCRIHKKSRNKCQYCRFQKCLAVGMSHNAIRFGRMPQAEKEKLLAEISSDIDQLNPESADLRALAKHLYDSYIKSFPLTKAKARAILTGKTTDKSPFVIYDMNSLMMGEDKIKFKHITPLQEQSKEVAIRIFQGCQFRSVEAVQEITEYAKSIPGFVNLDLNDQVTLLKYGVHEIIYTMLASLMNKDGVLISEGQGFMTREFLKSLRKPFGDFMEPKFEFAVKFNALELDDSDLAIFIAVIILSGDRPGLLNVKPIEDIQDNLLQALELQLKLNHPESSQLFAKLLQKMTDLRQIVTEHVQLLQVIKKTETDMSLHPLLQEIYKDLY
Assay: Bioprofiling 6pt Ag PPARgamma
Type: biochemical
Conditions: agonist readout
Experimental: as §1

Row | Compound | EC50 [µM]
29 | Cn1nc(C(F)(F)F)cc1C(=O)Nc1nc2ccc(C#N)cc2n1CC(F)(F)F [Compound 39, O=C(c1cc(C(F)(F)F)nn1C)Nc2nc(ccc(C#N)c3)c3n2CC(F)(F)F] | > 10
30 | COc1ccc(C(=O)Nc2nc3ccc(C#N)cc3n2CC(F)(F)F)cn1 [Compound 43, O=C(c1ccc(OC)nc1)Nc2nc(ccc(C#N)c3)c3n2CC(F)(F)F] | > 10
31 | Cn1nccc1C(=O)Nc1nc2ccc(C#N)cc2n1CC(F)(F)F [Compound 30, O=C(c1ccnn1C)Nc2nc(ccc(C#N)c3)c3n2CC(F)(F)F] | > 10
